This is an account of results in patent publication US10370343B2, “[6,6] Fused bicyclic HDAC8 inhibitors” (FORMA Therapeutics, Inc., priority 2015, dated 2019).

The experiment has as its target T1, Recombinant N-terminal GST tag full-length human HDAC8 (Homo sapiens, UniProt Q9BY41).
T1 construct: Recombinant N-terminal GST tag full-length human HDAC8; purchased SignalChem H90-30G-1000; host or cells: baculovirus in Sf9 insect cells
T1 sequence (Q9BY41 1-377): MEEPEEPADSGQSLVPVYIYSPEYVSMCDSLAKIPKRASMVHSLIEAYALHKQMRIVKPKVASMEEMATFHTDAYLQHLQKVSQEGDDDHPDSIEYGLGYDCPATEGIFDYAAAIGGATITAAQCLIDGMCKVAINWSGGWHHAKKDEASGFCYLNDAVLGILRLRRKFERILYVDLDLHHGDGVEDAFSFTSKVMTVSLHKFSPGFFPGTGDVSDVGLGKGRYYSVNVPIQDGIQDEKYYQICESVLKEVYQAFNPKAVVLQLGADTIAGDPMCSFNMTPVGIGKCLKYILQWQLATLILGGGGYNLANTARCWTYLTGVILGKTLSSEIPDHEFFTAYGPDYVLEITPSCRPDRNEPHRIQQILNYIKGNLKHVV
Nature of the experiment: HDAC8 probe binding assay, time resolved fluorescence (TRF) format. As to conditions: compounds grouped by IC50 range (Table 2). The method, boiled down: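 Probe-binding TRF assay using full-length N-GST human HDAC8 expressed in baculovirus-infected Sf9 cells, incubated 16 h at room temperature and read at 340 nm excitation, 485/535 nm emission. Percent inhibition was normalised to no-enzyme and DMSO controls. IC50 was obtained by 4-parameter logistic fit.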

pIC50: −log10 of the molar value. Some results are limits rather than exact numbers.

In the case of `CC1(C)Oc2ccc(C(=O)NO)cc2N(C/C=C/c2ccccc2)C1=O` [Compound I-318, 4-cinnamyl-N-hydroxy-2,2-dimethyl-3-oxo-3,4-dihydro-2H-benzo[b][1,4]oxazine-6-carboxamide], the pIC50 is at least 7.60.

As for `CC1(C)Oc2ccc(C(=O)NO)cc2N(Cc2cccc(OC(F)(F)F)c2)C1=O` [Compound I-319, N-hydroxy-2,2-dimethyl-3-oxo-4-(3-(trifluoromethoxy)benzyl)-3,4-dihydro-2H-benzo[b][1,4]oxazine-6-carboxamide], the negative logarithm of the IC50 (pIC50) was 7.00 to 7.60.

As for `CC1(C)Oc2ccc(C(=O)NO)cc2N(Cc2cc(-c3ccccc3)on2)C1=O` [Compound I-320, N-hydroxy-2,2-dimethyl-3-oxo-4-((5-phenylisoxazol-3-yl)methyl)-3,4-dihydro-2H-benzo[b][1,4]oxazine-6-carboxamide], the pIC50 was at least 7.60.

With `CC1(C)Oc2ccc(C(=O)NO)cc2N(Cc2ccc(C(F)(F)F)cc2F)C1=O` [Compound I-321, 4-(2-fluoro-4-(trifluoromethyl)benzyl)-N-hydroxy-2,2-dimethyl-3-oxo-3,4-dihydro-2H-benzo[b][1,4]oxazine-6-carboxamide], the pIC50 is at least 7.60.

On to `CC1(C)Oc2ccc(C(=O)NO)cc2N(Cc2ccc(OC(F)(F)F)cc2F)C1=O` [Compound I-322, 4-(2-fluoro-4-(trifluoromethoxy)benzyl)-N-hydroxy-2,2-dimethyl-3-oxo-3,4-dihydro-2H-benzo[b][1,4]oxazine-6-carboxamide], for which the pIC50 is 7.00 to 7.60.

On to `O=C(NO)c1ccc2c(c1)N(Cc1ccc3ccccc3c1)C(=O)CO2` [Compound I-323, N-hydroxy-4-(naphthalen-2-ylmethyl)-3-oxo-3,4-dihydro-2H-benzo[b][1,4]oxazine-6-carboxamide], for which the pIC50 is at least 7.60.

As to `O=C(NO)c1ccc2c(c1)N(Cc1cnc3[nH]ccc3c1)C(=O)CO2` [Compound I-324, 4-((1H-pyrrolo[2,3-b]pyridin-5-yl)methyl)-N-hydroxy-3-oxo-3,4-dihydro-2H-benzo[b][1,4]oxazine-6-carboxamide], the pIC50 was 7.00 to 7.60.

Consider `Cc1nn(C)c2ncc(CN3C(=O)COc4ccc(C(=O)NO)cc43)cc12` [Compound I-325, 4-((1,3-dimethyl-1H-pyrazolo[3,4-b]pyridin-5-yl)methyl)-N-hydroxy-3-oxo-3,4-dihydro-2H-benzo[b][1,4]oxazine-6-carboxamide], for which the pIC50 was at least 7.60.

Regarding `Cc1cccc2nc(CN3C(=O)COc4ccc(C(=O)NO)cc43)cc(=O)n12` [Compound I-327, N-hydroxy-4-((6-methyl-4-oxo-4H-pyrido[1,2-a]pyrimidin-2-yl)methyl)-3-oxo-3,4-dihydro-2H-benzo[b][1,4]oxazine-6-carboxamide], the pIC50 is 7.00 to 7.60.

`CC(C)Oc1ccc(CN2C(=O)COc3ccc(C(=O)NO)cc32)cc1` [Compound I-330, N-hydroxy-4-(4-isopropoxybenzyl)-3-oxo-3,4-dihydro-2H-benzo[b][1,4]oxazine-6-carboxamide]: the negative-log IC50 (pIC50) is at least 7.60.

For `O=C(NO)c1ccc2c(c1)N(Cc1ccc(OC3CCC3)cc1)C(=O)CO2` [Compound I-331, 4-(4-cyclobutoxybenzyl)-N-hydroxy-3-oxo-3,4-dihydro-2H-benzo[b][1,4]oxazine-6-carboxamide], the pIC50 was at least 7.60.

On to `COc1ccc(CN2C(=O)COc3ccc(C(=O)NO)cc32)cn1` [Compound I-332, N-hydroxy-4-((6-methoxypyridin-3-yl)methyl)-3-oxo-3,4-dihydro-2H-benzo[b][1,4]oxazine-6-carboxamide], for which the pIC50 is at least 7.60.

Consider `O=C(NO)c1ccc2c(c1)N(Cc1cnc3ccccc3c1)C(=O)CO2` [Compound I-333, N-hydroxy-3-oxo-4-(quinoIin-3-ylmethyl)-3,4-dihydro-2H-benzo[b][1,4]oxazine-6-carboxamide], for which the negative-log IC50 (pIC50) was at least 7.60.

In the case of `O=C(NO)c1ccc2c(c1)N(Cc1cc3ccccc3cn1)C(=O)CO2` [Compound I-334, N-hydroxy-4-(isoquinolin-3-ylmethyl)-3-oxo-3,4-dihydro-2H-benzo[b][1,4]oxazine-6-carboxamide], the pIC50 is at least 7.60.

Turning to `O=C(NO)c1ccc2c(c1)N(Cc1ccc3cccnc3c1)C(=O)CO2` [Compound I-335, N-hydroxy-3-oxo-4-(quinolin-ylmethyl)-3,4-dihydro-2H-benzo[b][1,4]oxazine-6-carboxamide], the pIC50 was at least 7.60.

For the molecule `O=C(NO)c1ccc2c(c1)N(Cc1ccc3cnccc3c1)C(=O)CO2` [Compound I-336, N-hydroxy-4-(isoquinolin-6-ylmethyl)-3-oxo-3,4-dihydro-2H-benzo[b][1,4]oxazine-6-carboxamide], the pIC50 is at least 7.60.

Regarding `O=C(NO)c1ccc2c(c1)N(Cc1ccc3ccncc3c1)C(=O)CO2` [Compound I-337, N-hydroxy-4-(isoquinolin-7-ylmethyl)-3-oxo-3,4-dihydro-2H-benzo[b][1,4]oxazine-6-carboxamide], the pIC50 is at least 7.60.

Consider `O=C(NO)c1ccc2c(c1)N(Cc1ccn3ccnc3c1)C(=O)CO2` [Compound I-338, N-hydroxy-4-(imidazo[1,2-a]pyridin-7-ylmethyl)-3-oxo-3,4-dihydro-2H-benzo[b][1,4]oxazine-6-carboxamide], for which the negative logarithm of the IC50 (pIC50) is at least 7.60.

With `O=C(NO)c1ccc2c(c1)N(Cc1ccn3nccc3c1)C(=O)CO2` [Compound I-339, N-hydroxy-3-oxo-4-(pyrazolo[1,5-a]pyridin-5-ylmethyl)-3,4-dihydro-2H-benzo[b][1,4]oxazine-6-carboxamide], the pIC50 was at least 7.60.

For `O=C(NO)c1ccc2c(c1)N(Cc1cccc(Cl)c1F)C(=O)CO2` [Compound I-340, 4-(3-chloro-2-fluorobenzyl)-N-hydroxy-3-oxo-3,4-dihydro-2H-benzo[b][1,4]oxazine-6-carboxamide], the pIC50 is at least 7.60.

For the molecule `COc1ccc(CN2C(=O)COc3ccc(C(=O)NO)cc32)c(F)c1` [Compound I-341, 4-(2-fluoro-4-methoxybenzyl)-N-hydroxy-3-oxo-3,4-dihydro-2H-benzo[b][1,4]oxazine-6-carboxamide], the negative logarithm of the IC50 (pIC50) is at least 7.60.

For `COc1cc(F)cc(CN2C(=O)COc3ccc(C(=O)NO)cc32)c1` [Compound I-342, 4-(3-fluoro-5-methoxybenzyl)-N-hydroxy-3-oxo-3,4-dihydro-2H-benzo[b][1,4]oxazine-6-carboxamide], the negative-log IC50 (pIC50) is 7.00 to 7.60.

Take `O=C(NO)c1ccc2c(c1)N(Cc1cc(F)cc(Cl)c1)C(=O)CO2` [Compound I-343, 4-(3-chloro-5-fluorobenzyl)-N-hydroxy-3-oxo-3,4-dihydro-2H-benzo[b][1,4]oxazine-6-carboxamide]: the pIC50 is at least 7.60.

Turning to `O=C(NO)c1ccc2c(c1)N(Cc1ccc(Cl)cc1F)C(=O)CO2` [Compound I-344, 4-(4-chloro-2-fluorobenzyl)-N-hydroxy-3-oxo-3,4-dihydro-2H-benzo[b][1,4]oxazine-6-carboxamide], the pIC50 was at least 7.60.

As for `O=C(NO)c1ccc2c(c1)N(Cc1ccc(Cl)c(C(F)(F)F)c1)C(=O)CO2` [Compound I-345, 4-(4-chloro-3-(trifluorornethyl)benzyl)-N-hydroxy-3-oxo-3,4-dihydro-2H-benzo[b][1,4]oxazine-6-carboxamide], the pIC50 is at least 7.60.

Turning to `O=C(NO)c1ccc2c(c1)N(Cc1ccc(Cl)c(F)c1)C(=O)CO2` [Compound I-346, 4-(4-chloro-3-fluorobenzyl)-N-hydroxy-3-oxo-3,4-dihydro-2H-benzo[b][1,4]oxazine-6-carboxamide], the negative-log IC50 (pIC50) is at least 7.60.

With `COc1ccc(Cl)c(CN2C(=O)COc3ccc(C(=O)NO)cc32)c1` [Compound I-347, 4-(2-chloro-5-methoxybenzyl)-N-hydroxy-3-oxo-3,4-dihydro-2H-benzo[b][1,4]oxazine-6-carboxamide], the pIC50 is at least 7.60.

Turning to `O=C(NO)c1ccc2c(c1)N(Cc1cc(Cl)ccc1F)C(=O)CO2` [Compound I-348, 4-(5-chloro-2-fluorobenzyl)-N-hydroxy-3-oxo-3,4-dihydro-2H-benzo[b][1,4]oxazine-6-carboxamide], the pIC50 was at least 7.60.

As for `O=C(NO)c1ccc2c(c1)N(Cc1cc(Cl)cc(C(F)(F)F)c1)C(=O)CO2` [Compound I-349, 4-(3-chloro-5-(trifluoromethyl)benzyl)-N-hydroxy-3-oxo-3,4-dihydro-2H-benzo[b][1,4]oxazine-6-carboxamide], the pIC50 is 7.00 to 7.60.

Take `COc1cc(CN2C(=O)COc3ccc(C(=O)NO)cc32)ccc1Cl` [Compound I-350, 4-(4-chloro-3-methoxybenzyl)-N-hydroxy-3-oxo-3,4-dihydro-2H-benzo[b][1,4]oxazine-6-carboxamide]: the pIC50 was at least 7.60.

In the case of `O=C(NO)c1ccc2c(c1)N(Cc1ccc(F)c(Cl)c1)C(=O)CO2` [Compound I-351, 4-(3-chloro-4-fluorobenzyl)-N-hydroxy-3-oxo-3,4-dihydro-2H-benzo[b][1,4]oxazine-6-carboxamide], the pIC50 is at least 7.60.

With `O=C(NO)c1ccc2c(c1)N(Cc1cc(F)ccc1Cl)C(=O)CO2` [Compound I-352, 4-(2-chloro-5-fluorobenzyl)-N-hydroxy-3-oxo-3,4-dihydro-2H-benzo[b][1,4]oxazine-6-carboxamide], the pIC50 is at least 7.60.

For the molecule `COc1cc(CN2C(=O)COc3ccc(C(=O)NO)cc32)ccc1F` [Compound I-353, 4-(4-fluoro-3-methoxybenzyl)-N-hydroxy-3-oxo-3,4-dihydro-2H-benzo[b][1,4]oxazine-6-carboxamide], the negative-log IC50 (pIC50) was 7.00 to 7.60.

As a reminder, the pIC50 is the IC50 on a negative log10 scale, so that one unit is a factor of ten.
